Measurements published in BindingDB's records for doi:10.1021/cb800162x (Yale University, 2008).

Experiments:
[1] = molecular target: T1, Heat shock protein HSP 90-beta (Homo sapiens, UniProt P08238); experiment: AlphaScreen Assay
Text: AlphaScreen technology based high-throughput (ALPHA) assay is used to identify inhibitors of Hsp90-TPR2A interaction.

[2] = molecular target: T1, Heat shock protein HSP 90-beta; experiment: Cell Proliferation Assay; conditions: 37 °C
Text: Cell assay using BT474, SKBR3 and MCF-12F cell lines measured by WST-1 colorimetric cell proliferation assay.

T1 sequence (P08238 whole entry): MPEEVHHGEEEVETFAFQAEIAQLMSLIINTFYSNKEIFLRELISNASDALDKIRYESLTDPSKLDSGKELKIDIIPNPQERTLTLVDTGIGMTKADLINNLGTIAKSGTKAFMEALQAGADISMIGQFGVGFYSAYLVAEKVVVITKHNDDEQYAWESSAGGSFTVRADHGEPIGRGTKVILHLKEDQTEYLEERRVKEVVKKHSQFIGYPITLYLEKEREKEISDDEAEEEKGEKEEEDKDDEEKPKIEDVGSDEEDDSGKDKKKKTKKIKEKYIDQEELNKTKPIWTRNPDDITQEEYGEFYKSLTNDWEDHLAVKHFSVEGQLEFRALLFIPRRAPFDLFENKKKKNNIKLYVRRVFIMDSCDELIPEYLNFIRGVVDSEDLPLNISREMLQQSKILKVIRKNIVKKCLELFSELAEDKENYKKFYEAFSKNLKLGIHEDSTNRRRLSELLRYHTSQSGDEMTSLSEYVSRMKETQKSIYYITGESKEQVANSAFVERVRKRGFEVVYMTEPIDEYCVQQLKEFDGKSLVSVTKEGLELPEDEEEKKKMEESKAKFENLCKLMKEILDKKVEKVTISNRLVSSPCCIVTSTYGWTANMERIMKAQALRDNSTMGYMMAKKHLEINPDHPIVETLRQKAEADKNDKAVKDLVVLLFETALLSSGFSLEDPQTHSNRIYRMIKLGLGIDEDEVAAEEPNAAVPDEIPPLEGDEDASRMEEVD

| SMILES | Kd [1] [nM] | EC50 [2] [nM] |
| --- | --- | --- |
| Cc1nc2c(=O)n(C)c(=O)nc-2n(C)n1 [1,3,6-Trimethyl-1H-pyrimido[5,4-e][1,2,4]triazine-5,7-dione] | 492 | 946 |
| Cn1nc(-c2ccccc2)nc2c(=O)n(C)c(=O)nc1-2 [1,6-dimethyl-3-phenyl-1H,5H,6H,7H-pyrimido[5,4-e][1,2,4]triazine-5,7-dione, 10] | 585 | 690 |
| CCCc1nc2c(=O)n(C)c(=O)nc-2n(C)n1 [1,6-dimethyl-3-propyl-pyrimido[5,4-e][1,2,4]triazine-5,7-dione] | 414 | 917 |
| CCn1nc(-c2ccccc2)nc2c(=O)n(C)c(=O)nc1-2 [1-Ethyl-6-methyl-3-phenyl-1H-pyrimido[5,4-e][1,2,4]triazine-5,7-dione] | 360 | 1720 |
| CCn1nc(-c2cccs2)nc2c(=O)n(C)c(=O)nc1-2 [1-ethyl-6-methyl-3-thiophen-2-yl-pyrimido[5,4-e][1,2,4]triazine-5,7-dione] | 365 | 1210 |
| CCn1nc(Cc2ccccc2)nc2c(=O)n(C)c(=O)nc1-2 [3-benzyl-1-ethyl-6-methyl-1H,5H,6H,7H-pyrimido[5,4-e][1,2,4]triazine-5,7-dione, 13] | 182 | 4270 |
